Results from publication PMC10609173, “Antiplasmodial and Antileishmanial Activities of a New Limonoid and Other Constituents from the Stem Bark of Khaya senegalensis” (Molecules, 2023).
Values after ≈ are worked out from the molar mass of the structure shown.

Assays:
[1] = tested on: promastigote form of Leishmania donovani (1S(MHOM/SD/62/1S)); assay: Antileishmanial resazurin-based assay on promastigotes; type: cell-based
Protocol: A T-75 cm^2 cell culture flask was filled with complete Medium 199 [M199 supplemented with 10% heat-inactivated fetal bovine serum (HIFBS) and 100 IU/mL penicillin/streptomycin (Sigma, Darmstadt, Germany)] and used to grow the promastigote forms of Leishmania donovani. Every 72 h, flasks were subcultured and incubated at 28 °C.
The resazurin-based assay was used to evaluate the antileishmanial activity of the extract (100 μg/mL–0.16 μg/mL), major fractions (100 μg/mL–0.16 μg/mL), and isolated compounds (50 μg/mL–0.08 μg/mL) against the promastigote form of Leishmania donovani. Briefly, 10 μL of inhibitors at various triplicate doses (as prescribed for the antiplasmodial assay) were added to 90 μL of promastigotes from a logarithmic phase culture at a density of 4.10^5 parasites/mL. The plates were incubated for 28 h at 28 °C, and 10 μL of resazurin solution (Sigma, Darmstadt, Germany) was added. Amphotericin B (Sigma, Darmstadt, Germany) (10 μg–0.016 μg/mL) and 0.1% DMSO-treated wells were used as the […], respectively. After a further 44 h of incubation, plates were read using a Magelan Infinite M200 fluorescence plate reader (Tecan, Männedorf, Switzerland) at excitation and emission wavelengths of 530 and 590 nm, respectively.
(§1) The resulting fluorescence readings were used to calculate the growth inhibition percentages relative to the negative control for each sample and for each of the tested doses. GraphPad Prism 8.0 software was used to generate concentration-response curves from the nonlinear regression fit to determine the median inhibitory or cytotoxic concentration (IC50/CC50). The resistance index (RI) for antiplasmodial tests was calculated as the ratio between the samples’ IC50 values for the chloroquine-sensitive strain 3D7 and the multiresistant strain Dd2 [69]. Inhibitors with an RI value below 1 were considered to act preferentially on the resistant strain. Based on each inhibitor’s antiparasitic efficacy (IC50) and cell toxicity (CC50), selectivity indices (SI) were calculated [SI = CC50 (RAW)/IC50 (Parasites)]. Samples were classified as poorly toxic to RAW cells if their SI values were greater than 10 [70].

[2] = parameters: method as in PMID 36249737, PMID 20162079; conditions: 400 mg/kg; from leaf extract of Osyris quadripartita; cited from earlier work
[3] = tested on: multidrug-resistant Dd2 strain of Plasmodium falciparum (PfDd2); assay: Antiplasmodial SYBR Green I fluorescence assay, PfDd2 strain; type: cell-based
Description: (§2) The parasite strains used in this study are continuously cultured at the Antimicrobial and Biocontrol Agents Unit of the University of Yaoundé I, and were graciously provided by BEI Resources (https://www.beiresources.org (accessed on 16 February 2019)). They comprise the Leishmania donovani strain (1S(MHOM/SD/62/1S), the multiresistant (PfDd2), and the chloroquine-sensitive (Pf3D7-(MRA-102)) strains of Plasmodium falciparum. RPMI 1640 media supplemented with 0.2% sodium bicarbonate (Sigma Aldrich, Billings, MT, USA), 0.5% Albumax II (Gibco), 1% hypoxanthine 100X (Gibco, Billings, MT, USA), 25 mM HEPES, and 0.04% gentamicin (Sigma Aldrich) was used to sustain P. falciparum strains in sterile petri dishes. Fresh red blood cells from healthy O^+ human volunteers were also added to the medium. These cells were suspended at 4% hematocrit (v/v) and incubated at 37 °C in a humidified environment with 5% CO2. To regularly maintain the culture, fresh medium was added to the culture every day. Thin blood smears stained with 10% Giemsa were used to microscopically monitor cell-cycle transition and parasitemia under immersion oil.
(§3) The antiplasmodial efficacy of the samples was evaluated using the SYBR Green I-based fluorescence assay, as previously reported by Smilkstein et al., on a sorbitol-synchronized ring stage culture of Plasmodium falciparum (PfDd2 and Pf3D7 strains). The test relies on the development of intense fluorescence following SYBR green binding to the exposed DNA found in wells containing healthy cells. Ninety microliters of parasites prepared with 1% hematocrit and 2% parasitemia and 10 μL of test sample extracts, fractions, isolated chemicals, chloroquine, and artemisinin were each added in triplicate into wells of a flat-bottomed microplate. The final test concentration values for the samples varied from 50 μg/mL-0.08 μg/mL and 100 μg/mL-0.16 μg/mL for extract/fractions. Following a 72 h incubation at 37 °C, 100 μL of SYBR Green I solution prepared with lysis buffer (0.2 μL of 10,000 SYBR Green I per mL of lysis buffer) made of EDTA (5 mM), Tris (20 mM; pH 7.5), Triton X-100 (0.08%; v/v), and saponin (0.008%; m/v) was added to each well. Fluorescence measurements were taken using an Infinite M200 microplate reader (Tecan, MT, USA) at emission and excitation wavelengths of 538 and 485 nm, respectively.
as §1

promastigote = tested on: promastigote; parameters: method as in PMID 24949478; conditions: isolate from Canarium patentinervium; cited from earlier work
[4] = Cytotoxicity assay (resazurin) on RAW 264.7 macrophages; type: cell-based, murine; conditions: mouse, RAW 264.7 macrophage cells; RAW 264.7 macrophages, 48 h incubation, resazurin; read-out: Cytotoxicity on RAW 264.7 Cells CC50 ± SD
Protocol: The murine macrophage RAW 264.7 cell line was grown in DMEM (Dulbecco’s modified Eagle’s medium) containing 1% penicillin-streptomycin, 1% nonessential amino acids (NEA), and 10% HIFBS at 37 °C, and 5% CO2 in a humidified environment. A reverse Etaluma fluorescence microscope was used to view the cells every day, and the growth media was replaced every 72 h. At 80% confluence, cells were isolated using 0.25% Trypsine-EDTA (Gibco, MT, USA).
The murine macrophages, RAW 264.7 cells, were plated into a 96-well cell culture treated flat-bottomed plate ([…], Inc., Newton, NC 28658, USA) at a density of 10 × 10^4 cells/100 μL/well and incubated overnight to enable cell adhesion. A fresh complete medium containing serially diluted concentrations of crude extract, fractions, and compounds was used to replace the previous medium. The final assay concentration values for extracts/fractions and compounds varied from 400 μg/mL to 0.8 μg/mL and 100–0.16 μg/mL, respectively. Podophyllotoxin (Sigma-Aldrich, Munich, Germany) was used as a positive control at a maximum dose of 10 μM. After 48 h of incubation, 10 μL of resazurin solution (0.15 mg/mL dissolved in PBS) was added to each well, and the plates were incubated for an additional 4 h. Fluorescence data were finally recorded with a Magellan Infinite M200 plate reader (Tecan, Germany) at excitation and emission wavelengths of 530 nm and 590 nm, respectively.
as §1

[5] = tested on: chloroquine-sensitive 3D7 strain of Plasmodium falciparum (Pf3D7); assay: Antiplasmodial SYBR Green I fluorescence assay, Pf3D7 strain; type: cell-based; conditions: 3D7, Pf3D7 strain, ring stage, 72 h, read-out: Antiplasmodial Activity Pf3D7 IC50 ± SD
Description: as §2, §3, §1

[6] = parameters: method as in PMID 30663371; conditions: limonoid from Meliaceae; cited from earlier work
[7] = parameters: method as in PMID 30663371; conditions: limonoid from Meliaceae; cited from earlier work; remark: listed apart in the source

Oc1cc(O)c2c(c1)O[C@H](c1ccc(O)c(O)c1)[C@@H](O)C2 [Catechin (9), catechin]
IC50 ([1]; Leishmania donovani, L. donovani promastigotes, 28 °C, read-out: Antileishmanial Activity IC50 ± SD): 27 ± 0.7 µg/mL (≈ 92.9 µM)
Antileishmanial Selectivity (SI) ([1]; SI = CC50 against macrophages/IC50 against promastigotes): >14.83
antimalarial effect, suppression value [2]: 64.26%
Antiplasmodial Activity PfDd2 IC50 ± SD ([3]; PfDd2 strain, ring stage, 72 h): 2.93 ± 0.02 µg/mL
IC50 ([3]; Plasmodium falciparum, DD2, 72 h, read-out: Antiplasmodial Activity PfDd2 IC50 ± SD, PfDd2 strain, ring stage, 72 h): 2.95 µg/mL (≈ 10.2 µM)
IC50, antipromastigote activity (promastigote): 478.93 ± 0.28 µg/mL (≈ 1650 µM)
CC50 at 48 h [4]: > 400 µg/mL
IC50 [5]: 111.96 ± 0.04 µg/mL (≈ 386 µM)

trigilgianin
IC50, antileishmanial activity [6]: 6.044 µg/mL

CC(=O)O[C@@H]1C[C@H]2C(C)(C)OC(=O)C=C[C@]2(C)[C@H]2CC[C@@]3(C)[C@@H](c4ccoc4)OC(=O)[C@H]4O[C@]43[C@@]21C [7α-obacunyl acetate]
IC50, antiplasmodial activity [7]: 5.14 µg/mL
